According to patent publication US20230103631A1, “PEPTIDES AS SELECTIVE GIP RECEPTOR AGONISTS” (Sanofi, priority 2020, published 2023):
*1 amine or outer side, *2 acyl side, *3 side chain or, on linkers, in order; H or OH if unused. Where a SMILES comes first, the peptide text is derived from it. Side-chain parts run from the residue outwards. [ ]: non-standard residue; d: D form. The star is where a group is joined. C18 diacid = O=C(O)CCCCCCCCCCCCCCCCC(=O)*; γGlu = O=C(O)[C@H](CCC(=O)[*:2])N[*:1]; AEEA = NCCOCCOCC(=O)O; Aib = CC(C)(N)C(=O)O; Sar = CNCC(=O)O

Assays:
[1] = Dynamic light scattering (DLS) for the assessment of physical stability; format: physicochemical; conditions: DLS buffer system A
Source text: A monochromatic and coherent light beam (laser) is used to illuminate the liquid sample. Dynamic Light Scattering (DLS) measures light scattered from particles (1 nm≤radius≤1 μm) that undergo Brownian motion. This motion is induced by collisions between the particles and solvent molecules, that themselves are moving due to their thermal energy. The diffusional motion of the particles results in temporal fluctuations of the scattered light (R. Pecora, Dynamic Light Scattering: Applications of Photon Correlation Spectroscopy, Plenum Press, 1985).
The scattered light intensity fluctuations are recorded and transformed into an autocorrelation function. By fitting the autocorrelation curve to an exponential function, the diffusion coefficient D of the particles in solution can be derived. The diffusion coefficient is then used to calculate the hydrodynamic radius Rh (or apparent Stokes radius) through the Stokes-Einstein equation assuming spherical particles. This calculation is defined in ISO 13321 and ISO 22412 (International Standard ISO13321 Methods for Determination of Particle Size Distribution Part 8: Photon Correlation Spectroscopy, International Organisation for Standardisation (ISO) 1996; International Standard ISO22412 Particle Size Analysis—Dynamic Light Scattering, International Organisation for Standardisation, 2008).
In case of polydisperse samples, the autocorrelation function is the sum of the exponential decays corresponding to each of the species. The temporal fluctuations of the scattered light can then be used to determine the size distribution profile of the particle fraction or family. The first order result is an intensity distribution of scattered light as a function of the particle size. The intensity distribution is naturally weighted according to the scattering intensity of each particle fraction or family. For biological materials or polymers, the particle scattering intensity is proportional to the square of the molecular weight. Thus, small amount of aggregates/agglomerates or presence or a larger particle species can dominate the intensity distribution. However, this distribution can be used as a sensitive detector for the presence of large material in the sample.
The DLS technique produces distributions with inherent peak broadening. The polydispersity index % Pd is a measure of the width of the particle size distribution and is calculated by standard methods described in ISO13321 and ISO22412 [International Standard ISO13321 Methods for Determination of Particle Size Distribution Part 8: Photon Correlation Spectroscopy, International Organisation for Standardisation (ISO) 1996; International Standard ISO22412 Particle Size Analysis—Dynamic Light Scattering, International Organisation for Standardisation (ISO) 2008].
Solutions from solid samples were prepared in buffer systems (see below) with a target concentration of 300 μM compound based on the previously determined % purity.
DLS buffer system A) 20 mM phosphate buffer pH 7.4
DLS buffer system B) 8 mM phosphate buffer pH 7.4, 14 mg/ml propylene glycol, 5.5 mg/ml phenol
DLS buffer system C) 100 mM phosphate buffer pH 7.4, 2.7 mg/ml m-cresol Solutions were filtered through 0.22 μm pore size and filled into sterilized glass containers under laminar flow conditions. For every peptide solution, the apparent hydrodynamic radius (Rh), the corresponding Scattering Intensity (I), and the Mass Contribution (M) were determined as an average over 3-6 replicates from the intensity distribution of the scattered light averaging only high-quality measurements. Relative standard deviations (RSD) for these parameters were calculated from the same number of replicates. […]

[2] = molecular target: human GLP-1 receptor (hGLP-1R) (Homo sapiens, UniProt P43220); assay: cAMP HTRF assay, HEK-293 cell line over-expressing human GLP-1 receptor; format: cell-based; conditions: HEK-293, cAMP, 0% HSA
Description: Each vial contained 1.8 ml cells. The vials were slowly frozen to −80° C. in isopropanol, and then transferred in liquid nitrogen for storage.
Prior to their use, frozen cells were thawed quickly at 37° C. and washed (5 min at 900 rpm) with 20 ml cell buffer (1× HBSS; 20 mM HEPES, plus 0.1% HSA if indicated in Example conditions).
For measurement of cAMP generation, 5 μl cells (final 5000 cells/well) and 5 μl of test compound were added to a 384-well plate, followed by incubation for 30 min at room temperature.
The cAMP generated was determined using a kit from Cisbio Corp. based on HTRF (Homogenous Time Resolved Fluorescence). The cAMP assay was performed according to manufacturer's instructions (Cisbio).

[3] = Chemical stability assessment (relative purity loss by UHPLC-UV); format: physicochemical; conditions: Chemical stability buffer system A: 20 mM phosphate buffer pH 7.4
Description: Purity of a peptide batch was determined through UHPLC/MS prior to chemical stability measurement. The target concentration was […] pure compound. Solutions from solid samples were prepared in the following buffer systems with a concentration of ˜300 μM compound based on the previously determined % purity:
Chemical stability buffer system A) 20 mM phosphate buffer pH 7.4,
Chemical stability buffer system B) 8 mM phosphate buffer pH 7.4, 14 mg/ml propylene glycol, 5.5 mg/ml phenol
Chemical stability buffer system C) 100 mM phosphate buffer pH 7.4, 2.7 mg/ml m-cresol
Prepared solutions were filtered through […] pore size and filled into sterilized glass containers under laminar flow conditions.
Glass containers were stored for 28 days at 5 and 40° C. After this time, the samples were centrifuged for 15 min at 2500 RCF. Then 1.5 μl of the undiluted supernatant were analysed with UHPLC-UV.
The chemical stability was rated through the relative loss of purity calculated by the equation:
[(purity after 28 days at 5° C.)−(purity after 28 days at 40° C.)]/(purity after 28 days at 5° C.)]*100%
The purity is calculated as
[(peak area peptide)/(total peak area)]*100%
The analytical methods used were Analytical UHPLC Method B or C.
Peptide samples were prepared in Chemical stability buffer system A or B and stability was assessed as described in Methods.

Sequence of human GLP-1 receptor (hGLP-1R) (P43220 24-463): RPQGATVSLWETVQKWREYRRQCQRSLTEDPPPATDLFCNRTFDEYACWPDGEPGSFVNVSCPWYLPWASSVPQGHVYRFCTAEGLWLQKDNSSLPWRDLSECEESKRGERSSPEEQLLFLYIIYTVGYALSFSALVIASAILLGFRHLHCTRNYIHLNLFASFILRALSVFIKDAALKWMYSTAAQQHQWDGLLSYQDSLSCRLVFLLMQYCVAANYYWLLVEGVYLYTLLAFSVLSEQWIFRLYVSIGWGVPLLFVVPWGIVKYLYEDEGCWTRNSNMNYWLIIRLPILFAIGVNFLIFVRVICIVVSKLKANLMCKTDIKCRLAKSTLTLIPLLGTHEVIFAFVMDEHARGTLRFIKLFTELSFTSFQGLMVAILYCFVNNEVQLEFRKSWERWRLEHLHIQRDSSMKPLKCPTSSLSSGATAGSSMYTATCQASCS

Compound | I and SD (Scattering Intensity) ([1]; 0 weeks) [%] | M and SD (Mass Contribution) ([1]; 0 weeks) [%] | apparent Rh and SD ([1]; 0 weeks) [nm] | I and SD (Scattering Intensity) ([1]; 4 weeks storage at 40° C.) [%] | M and SD (Mass Contribution) ([1]; 4 weeks storage at 40° C.) [%] | apparent Rh and SD ([1]; 4 weeks storage at 40° C.) [nm] | EC50 [2] [nM] | Relative purity loss over 28 days at 40° C. [3] [%]
CC[C@H](C)[C@H](NC(=O)[C@H](CCCNC(=N)N)NC(=O)[C@H](CC(=O)O)NC(=O)[C@H](CCCCNC(=O)COCCOCCNC(=O)COCCOCCNC(=O)CC[C@H](NC(=O)CCCCCCCCCCCCCCCCC(=O)O)C(=O)O)NC(=O)C(C)(C)NC(=O)[C@@H](NC(=O)[C@H](CO)NC(=O)[C@H](CC(C)C)NC(=O)[C@H](CC(=O)O)NC(=O)[C@H](CO)NC(=O)[C@@H](NC(=O)[C@H](Cc1ccccc1)NC(=O)[C@@H](NC(=O)CNC(=O)[C@H](CCC(=O)O)NC(=O)C(C)(C)NC(=O)[C@@H](N)Cc1ccc(O)cc1)[C@@H](C)O)[C@@H](C)CC)[C@@H](C)CC)C(=O)N[C@@H](Cc1c[nH]cn1)C(=O)N[C@@H](CCC(N)=O)C(=O)NC(C)(C)C(=O)N[C@@H](CCC(=O)O)C(=O)N[C@@H](Cc1ccccc1)C(=O)N[C@H](C(=O)N[C@@H](CCC(=O)O)C(=O)N[C@@H](Cc1c[nH]c2ccccc12)C(=O)N[C@@H](CC(C)C)C(=O)N[C@@H](CC(C)C)C(=O)N[C@@H](C)C(=O)N[C@@H](CCC(N)=O)C(=O)NCC(=O)N1CCC[C@H]1C(=O)N[C@@H](CO)C(=O)N[C@@H](CO)C(=O)NCC(=O)N[C@@H](C)C(=O)N1CCC[C@H]1C(=O)N1CCC[C@H]1C(=O)N1CCC[C@H]1C(=O)N[C@@H](CO)C(N)=O)[C@@H](C)CC [SEQ ID NO: 4, H2N-Y-Aib-E-G-T-F-I-S-D-I-S-I-Aib-K[{AEEA}2-gGlu-C18OH]-D-R-I-H-Q-Aib-E-F-I-E-W-I-L-A-Q-G-P-S-S-G-A-P-P-P-S-NH2] (H-Y[Aib]EGTFISDLSI[Aib]K([AEEA-AEEA-γGlu-C18 diacid])DRIHQ[Aib]EFIEWLLAQGPSSGAPPPS-NH2) | 93 ± 1 | 100 ± 0 | 1.91 ± 0.05 | 93 ± 1 | 100 ± 0 | 1.9 ± 0.04 | > 10 | –
CC[C@H](C)[C@H](NC(=O)[C@H](CCCNC(=N)N)NC(=O)[C@H](CC(=O)O)NC(=O)[C@H](CCCCNC(=O)CNC(=O)CNC(=O)CNC(=O)CC[C@H](NC(=O)CCCCCCCCCCCCCCCCC(=O)O)C(=O)O)NC(=O)C(C)(C)NC(=O)[C@@H](NC(=O)[C@H](CO)NC(=O)[C@H](CC(C)C)NC(=O)[C@H](CC(=O)O)NC(=O)[C@H](CO)NC(=O)[C@@H](NC(=O)[C@H](Cc1ccccc1)NC(=O)[C@@H](NC(=O)CNC(=O)[C@H](CCC(=O)O)NC(=O)C(C)(C)NC(=O)[C@@H](N)Cc1ccc(O)cc1)[C@@H](C)O)[C@@H](C)CC)[C@@H](C)CC)C(=O)N[C@@H](Cc1c[nH]cn1)C(=O)N[C@@H](CCC(N)=O)C(=O)NC(C)(C)C(=O)N[C@@H](CCC(=O)O)C(=O)N[C@@H](Cc1ccccc1)C(=O)N[C@H](C(=O)N[C@@H](CCC(=O)O)C(=O)N[C@@H](Cc1c[nH]c2ccccc12)C(=O)N[C@@H](CC(C)C)C(=O)N[C@@H](CC(C)C)C(=O)N[C@@H](C)C(=O)N[C@@H](CCC(N)=O)C(=O)NCC(=O)N1CCC[C@H]1C(=O)N[C@@H](CO)C(=O)N[C@@H](CO)C(=O)NCC(=O)N[C@@H](C)C(=O)N1CCC[C@H]1C(=O)N1CCC[C@H]1C(=O)N1CCC[C@H]1C(=O)N[C@@H](CO)C(N)=O)[C@@H](C)CC [SEQ ID NO: 5, H2N-Y-Aib-E-G-T-F-I-S-D-I-S-I-Aib-K[{Gly}3-gGlu-C18OH]-D-R-I-H-Q-Aib-E-F-I-E-W-I-L-A-Q-G-P-S-S-G-A-P-P-P-S-NH2] (H-Y[Aib]EGTFISDLSI[Aib]K([Gly-Gly-Gly-γGlu-C18 diacid])DRIHQ[Aib]EFIEWLLAQGPSSGAPPPS-NH2) | 76 ± 2 | 100 ± 0 | 2.05 ± 0.04 | 89 ± 3 | 100 ± 0 | 1.99 ± 0.03 | > 10 | 5.8
CC[C@H](C)[C@H](NC(=O)[C@H](CCCNC(=N)N)NC(=O)[C@H](CC(=O)O)NC(=O)[C@H](CCCCNC(=O)CN(C)C(=O)CN(C)C(=O)CN(C)C(=O)CC[C@H](NC(=O)CCCCCCCCCCCCCCCCC(=O)O)C(=O)O)NC(=O)C(C)(C)NC(=O)[C@@H](NC(=O)[C@H](CO)NC(=O)[C@H](CC(C)C)NC(=O)[C@H](CC(=O)O)NC(=O)[C@H](CO)NC(=O)[C@@H](NC(=O)[C@H](Cc1ccccc1)NC(=O)[C@@H](NC(=O)CNC(=O)[C@H](CCC(=O)O)NC(=O)C(C)(C)NC(=O)[C@@H](N)Cc1ccc(O)cc1)[C@@H](C)O)[C@@H](C)CC)[C@@H](C)CC)C(=O)N[C@@H](Cc1c[nH]cn1)C(=O)N[C@@H](CCC(N)=O)C(=O)NC(C)(C)C(=O)N[C@@H](CCC(=O)O)C(=O)N[C@@H](Cc1ccccc1)C(=O)N[C@H](C(=O)N[C@@H](CCC(=O)O)C(=O)N[C@@H](Cc1c[nH]c2ccccc12)C(=O)N[C@@H](CC(C)C)C(=O)N[C@@H](CC(C)C)C(=O)N[C@@H](C)C(=O)N[C@@H](CCC(N)=O)C(=O)NCC(=O)N1CCC[C@H]1C(=O)N[C@@H](CO)C(=O)N[C@@H](CO)C(=O)NCC(=O)N[C@@H](C)C(=O)N1CCC[C@H]1C(=O)N1CCC[C@H]1C(=O)N1CCC[C@H]1C(=O)N[C@@H](CO)C(N)=O)[C@@H](C)CC [SEQ ID NO: 6, H2N-Y-Aib-E-G-T-F-I-S-D-I-S-I-Aib-K[{N-MeGly}3-gGlu-C18OH]-D-R-I-H-Q-Aib-E-F-I-E-W-I-L-A-Q-G-P-S-S-G-A-P-P-P-S-NH2] (H-Y[Aib]EGTFISDLSI[Aib]K([Sar-Sar-Sar-γGlu-C18 diacid])DRIHQ[Aib]EFIEWLLAQGPSSGAPPPS-NH2) | 86 ± 2 | 100 ± 0 | 1.92 ± 0.03 | 83 ± 1 | 100 ± 0 | 1.94 ± 0.03 | > 10 | 5.4
